Assay results from patent US20230017948A1, “COMBINATION THERAPY USING FABP5 INHIBITORS WITH TAXANES FOR TREATMENT OF CANCER” (The Research Foundation for The State University of New York, priority 2019, published 2023).
pIC50: −log10 of the molar value.

Key:
PCa cell = details: in vitro and in vivo (Al-Jameel, W. et al. 2017); cited from earlier work
PC3 cells = test: MTT cytotoxicity assay, single drugs and combinations, PC3 cells; assay type: cell-based; details: Homo sapiens, PC-3, 72-hour incubation
22Rv1 cells = test: cells; details: Homo sapiens, 22Rv1, 72 h, read-out: cytotoxicity IC50
DU-145 cells = test: MTT cytotoxicity assay, single drugs and combinations, DU-145 cells; assay type: cell-based; details: Homo sapiens; DU-145, MTT, 72-hour incubation
[1] = test system: PC3 cells implanted subcutaneously; test: Subcutaneous PC3 tumor growth in male BALB/c nude mice; assay type: in vivo; details: ip
Experimental: Male BALB/c nude mice (BALB/cOlaHsd-Foxnlnu, 20-30 g, 7-8 weeks old) (Envigo RMS Inc, Indianapolis, Ind.) were used for all experiments. Animals were housed individually at room temperature and were kept on a 12:12-hour light:dark cycle with access to food and water ad libitum. Euthanasia was carried out utilizing CO2 asphyxiation. All of the experiments were approved by the Stony Brook University Animal Care and Use Committee.
Male BALB/c nude mice were subcutaneously inoculated with PC3 cells. Briefly, cells (1×10^6 per mouse) were resuspended in 100 μL of a 1:1 mixture of phosphate-buffered saline (PBS):Matrigel (Corning Inc, Corning, N.Y.) and implanted into a single dorsal lateral flank using a 21G needle. Tumor length (L) and tumor width (W) were measured twice weekly using digital calipers, and tumor volume (V) was calculated as (V═[L×W2]/2). When tumor volume reached approximately 150 to 200 mm3, animals were grouped and drug administration commenced. Humane endpoints for all animals were as follows: animals carrying a tumor burden greater than 35 days, body weight (which was recorded twice weekly) decreasing by greater than 15%, tumor ulceration, paralysis, failure to groom, bleeding, respiratory distress, and/or tumor volume reaching 1500 mm3.
SBFI-102, SBFI-103, and docetaxel were each reconstituted in a 1:1:8 vehicle consisting of dimethyl sulfoxide (DMSO) (Thermo Fisher Scientific, Hampton, N.H.):Cremaphor-EL (Sigma-Aldrich):saline. SBFI-102 and SBFI-103 were administered via intraperitoneal injection (ip) using a 27G needle at 20 mg/kg daily. Docetaxel was administered i.p. at 5 or 10 mg/kg weekly. All drugs were administered in a volume of 10 μL/g body weight.
All data were obtained from at least three independent experiments and then values described in each figure legend depict each independent trial or animal. Data for all in vivo experiments were analyzed using a one-way analysis of variance with the Tukey post hoc test (GraphPad Prism, version 8.0.2). Data are represented as means±SEM and P<0.05 was considered statistically significant. […]

[2] = MTT cytotoxicity assay, RWPE-1 cells (normal prostate cell-line); assay type: cell-based; details: human, RWPE-1, MTT, 72-hour incubation
[3] = MTT cytotoxicity assay, WI-38 cells (normal lung cell-line); assay type: cell-based; details: human, WI-38, MTT, 72-hour incubation
[4] = 20 mg/kg, once daily, from day 15

For O=C(O)C1[C@H](c2ccccc2)C(C(=O)Oc2cccc3ccccc23)[C@H]1c1ccccc1 (some centres unmarked) [SBFI-26], the “effect on PCa cell growth, migration, invasion, tumor formation and metastasis” value (PCa cell) is given as “suppresses PCa cell growth, migration, invasion, tumor formation, and metastasis”.
With CC(=O)O[C@@]12CO[C@@H]1C[C@H](O)[C@@]1(C)C(=O)[C@H](O)C3=C(C)[C@@H](OC(=O)[C@H](O)[C@@H](NC(=O)OC(C)(C)C)c4ccccc4)C[C@@](O)([C@@H](OC(=O)c4ccccc4)[C@H]21)C3(C)C [docetaxel, reference compound] the pIC50 (PC3 cells) was 8.72, the pIC50 (22Rv1 cells) was 9.52 and the pIC50 (DU-145 cells) was 9.10. The tumor growth ([1]; docetaxel 10 mg/kg, once weekly) was “near complete inhibition of growth”.
With COc1ccccc1C1[C@H](C(=O)O)[C@H](c2ccccc2OC)[C@H]1C(=O)OCC1c2ccccc2-c2ccccc21 (some centres unmarked) [SBFI-103] the pIC50 (PC3 cells) was 5.20, the IC50 at 72 h [2] was 20.6 µM and the pIC50 (22Rv1 cells) was 5.51. For the same molecule, the IC50 at 72 h [3] was 29.6 µM, the pIC50 (DU-145 cells) was 5.48 and the tumor growth [1, 4] was “significantly reduced tumor growth”.
With COc1ccccc1C1[C@H](C(=O)O)[C@H](c2ccccc2OC)[C@H]1C(=O)Oc1cccc2ccccc12 (some centres unmarked) [SBFI-102] the pIC50 (PC3 cells) was 4.94, the IC50 at 72 h [2] was 26 µM and the pIC50 (22Rv1 cells) was 5.00. For the same molecule, the IC50 at 72 h [3] was 29.4 µM, the pIC50 (DU-145 cells) was 5.05 and the tumor growth [1, 4] was “significantly reduced tumor growth”.
Work on CO[C@H]1C(=O)[C@]2(C)[C@@H](OC)C[C@H]3OC[C@@]3(OC(C)=O)[C@H]2[C@H](OC(=O)c2ccccc2)[C@]2(O)C[C@H](OC(=O)[C@H](O)[C@@H](NC(=O)OC(C)(C)C)c3ccccc3)C(C)=C1C2(C)C [cabazitaxel, reference compound] yielded a pIC50 (PC3 cells) of 8.80, a pIC50 (22Rv1 cells) of 9.52 and a pIC50 (DU-145 cells) of 9.70.
